{"source": "patent US20230181540A1", "about": "“COMPOSITIONS AND METHODS FOR ACTIVATING SIGNALING THROUGH THE CB2 CANNABINOID RECEPTOR FOR TREATING AND PREVENTING LYSOSOMAL STORAGE DISEASES AND DISORDERS” (Wylder Nation Foundation, priority 2020, published 2023)", "key": {"CB2": {"tested_on": "CB2", "test": "Immunohistochemical analysis of CB2 expression in organs of Farber disease mice", "format": "in vivo, mouse", "details": "5 mg/kg i.p. 3x a week for 6 weeks, 8.5-week-old, vs untreated Farber mice", "procedure": "Ten 2.5-week-old Farber disease mice were treated once weekly with recombinant acid ceramidase by intraperitoneal injection at a dose of 10 mg/kg. After 6 injections the 8.5-week-old mice were euthanized and their organs collected and processed for immunohistochemical analysis of CB2 expression. […] Thus, CB2 can be used as a biomarker to monitor the efficacy of treatment for Farber disease and other lysosomal storage disorders.\n(§1) Ten 2.5-week-old Farber disease mice were treated 3x a week by intraperitoneal injection of JWH133 at a dose of 5 mg/kg. After 6 weeks the 8.5-week-old mice were euthanized and their organs collected and processed for immunohistochemical analysis of CB2 expression. […] Thus, CB2 agonists, such as JWH133, can be used to treat Farber disease and other lysosomal storage disorders."}, "MCP-1 [1]": {"tested_on": "MCP-1", "test": "MCP-1 expression in liver and plasma of Farber disease mice", "format": "in vivo, mouse", "details": "5 mg/kg i.p. 3x a week for 6 weeks, vs untreated Farber mice", "procedure": "as §1, with “organs and plasma” for “organs”, “of MCP-1” for “of CB2”, “storage disorders (* = p<0.01).” for “storage disorders.”"}, "MCP-1 [2]": {"tested_on": "MCP-1", "test": "MCP-1 released into culture media by skin fibroblasts from a patient with MPS IIIA (ELISA)", "format": "cell-based, human", "details": "3.2 micromoles/ml, 72 or 96 hr, vs cultures without drug, p < 0.01", "procedure": "Skin fibroblasts from a patient with MPS IIIA were grown to ~70% confluency and the CB2 agonists JHW133 and PM226 were added to the culture media for 72 or 96 hr at a dose of 3.2 micromoles/ml (black and gray bars, respectively). Control: cultures without drug added (white bars). […] Bar heights indicate the mean values from three independent experiments. Vertical lines indicate the standard error of the mean. * = p < 0.01 comparing with and without drug."}, "Farber mice": {"tested_on": "Farber mice", "test": "Survival and body weight of Farber mice treated with CB2 agonist", "description": "Two Farber mouse groups were studied (n=12 mice per group). […] In the control group they were injected with DMSO alone. Weight was monitored daily."}, "[3]": {"tested_on": "mouse model of Sanfilippo disease (mucopolysaccharidosis IIIA)", "details": "cited from earlier work"}, "[4]": {"tested_on": "mouse model of Niemann-Pick diseases type C1 (NPC1)", "details": "cited from earlier work"}}, "note": "Entries after “also recorded” stand apart in the source; their conditions may differ.", "data": [{"molecule": "CCCC(C)(C)c1ccc2c(c1)OC(C)(C)[C@@H]1CC=C(C)C[C@@H]21", "note": "[JWH133]", "values": [{"measurement": "CB2 expression (immunohistochemistry)", "setting": "CB2", "value": "significantly reduced"}, {"measurement": "MCP-1 expression in the liver", "setting": "MCP-1 [1]", "value": "significantly reduced"}, {"measurement": "MCP-1 expression in plasma", "setting": "MCP-1 [1]; p<0.01", "value": "significantly reduced"}, {"measurement": "levels of MCP-1 released into the culture media", "setting": "MCP-1 [2]", "value": "able to reduce the levels of MCP-1 released into the culture media"}, {"measurement": "day of natural death in the treatment group", "setting": "Farber mice; Farber mice, 5 mg/kg i.p. three times a week from 2 weeks of age", "value": 47, "unit": "days"}, {"measurement": "survival / life span", "setting": "Farber mice; Farber mice, 5 mg/kg i.p. three times a week in DMSO from 2 weeks of age, vs vehicle control (all dead by day 44)", "value": "survived longer than vehicle control treated mice"}, {"measurement": "body weight", "setting": "Farber mice; Farber mice, 5 mg/kg i.p. three times a week, throughout the study, vs vehicle alone, 5 mg/kg", "value": "significantly greater; also recorded: significant prevention of weight loss"}, {"measurement": "number of mice that died naturally in the treatment group", "setting": "Farber mice; of 12 Farber mice, 5 mg/kg i.p. three times a week, remaining 11 euthanized at day 58", "value": 1}]}, {"molecule": "CCCCCCC(C)(C)c1cc(OC)c2c(c1)OC(C)(C)c1cnoc1-2", "note": "[PM226]", "values": [{"measurement": "levels of MCP-1 released into the culture media", "setting": "MCP-1 [2]", "value": "able to reduce the levels of MCP-1 released into the culture media"}]}, {"molecule": "CC(=O)Oc1ccccc1C(=O)O", "note": "[aspirin]", "values": [{"measurement": "expression of inflammation-related genes", "setting": "[3]; chronic treatment for 6 months with high doses", "value": "normalize expression of some inflammation-related genes"}, {"measurement": "treatment efficacy", "setting": "[4]", "value": "failed to show treatment efficacy"}]}, {"molecule": "CC(C)Cc1ccc(C(C)C(=O)O)cc1", "note": "(centres unmarked) [ibuprofen]", "values": [{"measurement": "lifespan", "setting": "[4]; high doses", "value": "prolong the lifespan of the mice by about two weeks"}, {"measurement": "onset of clinical signs", "setting": "[4]; high doses", "value": "modestly slow the onset of clinical signs"}]}, {"molecule": "pentosan polysulfate [PPS]", "values": [{"measurement": "CNS pathology", "setting": "[3]; mouse model of MPS IIIA, attributed to systemic effects", "value": "some improvements in CNS pathology were noted"}]}]}
